What was measured:
Human LDHA = Human LDHA (Homo sapiens (Human), UniProt P00338); experiment: human LDHA primary biochemical assay; conditions: read-out: Inhibitory activity IC50, assay of Example 1, activity level classes
Source text: This example describes a human LDHA primary biochemical assay employed in the characterization of a compound of formula (I) in an embodiment of the invention.
Test compounds were placed in a Greiner Bio-One (Monroe, N.C.) 1536-well black solid bottom assay plate. 200 millimolar (mM) Tris HCl, pH 7.4, 100 micromolar (μM) EDTA and 0.01% TWEEN-20™, final concentration, was used as the assay buffer. The LDHA reagent was 2 nanomolar (nM) Human LDHA (Meridian Life Science, Inc., Memphis, Tenn.), final concentration, in assay buffer. The substrate reagent was 0.06 mM NADH and 0.2 mM sodium pyruvate, final concentration, in assay buffer. […] The inhibition of LDHA activity was measured by fluorescence emission.

MiaPaCa2 cells = experiment: cell-based HT Lactate assay, colorimetric/fluorometric detection (inhibition of lactate production); conditions: class symbols
Protocol: Cell-based HT Lactate assay is a miniaturized Biovision Lactate Colorimetric/Fluorometric Assay Kit (Cat #K607-100). The assay is roughly a 3.5 hour assay run in a 1536 plate format. Cell number optimization should be run for each cell line to achieve an optimal number in which lactate production equals roughly 90% of the standard curve range. Cell number per well optimization has been performed with the following cell lines: MiaPaCa2—500 cells/well, SNU398—500 cells/well, and P493—500 cells/well.
The lactate activity in Table 8 is represented by 0 to 3 pluses as follows: […]; ++1-10 μM; +10-57 μM; and −>57 μM.

[1] = pharmacokinetics after oral administration in mice; type: in vivo; conditions: male CD1 mice, oral 10 mg/kg

Row | F (fraction of the dose that enters systemic circulation) [1] [%] | AUClast ([1]; plasma, LC/MS/MS) [ng·h/mL] | Cmax ([1]; plasma, LC/MS/MS) [ng/mL] | Molecule | IC50 (Human LDHA) [µM] | IC50 (MiaPaCa2 cells) [µM]
1 |  |  |  | 2-(3-(3′-amino-[1,1′-biphenyl]-3-yl)-4-(4-sulfamoylbenzyl)-1H-pyrazol-1-yl)thiazole-4-carboxylic acid [Compound 523] | 0.1 to 1 | 1 to 10
2 | 34 |  |  | NS(=O)(=O)c1ccc(Cc2c(-c3cccc(-c4ccccc4)c3)nn(-c3nc(C(=O)O)cs3)c2C(F)(F)F)cc1 [Compound 42, 2-(3-([1,1′-biphenyl]-3-yl)-4-(4-sulfamoylbenzyl)-5-(trifluoromethyl)-1H-pyrazol-1-yl)thiazole-4-carboxylic acid] |  | 
3 | 69 | 2409 | 851 | CCOC(=O)c1csc(-n2nc(-c3cccc(-c4ccccc4)c3)c(Cc3ccc(S(N)(=O)=O)cc3)c2C(F)(F)F)n1 [Compound 141, ethyl 2-(3-([1,1′-bipheny]-3-yl)-4-(4-sulfamoylbenzyl)-5-(trifluoromethyl)-1H-pyrazol-1-yl)thiazole-4-carboxylate] |  | 
4 |  |  |  | NS(=O)(=O)c1ccc(Cc2c(-c3ccc(F)c(OC4CC4)c3)nn(-c3nc(C(=O)O)cs3)c2CC2CC2)cc1F [Compound 471, 2-(3-(3-cyclopropoxy-4-fluorophenyl)-5-(cyclopropylmethyl)-4-(3-fluoro-4-sulfamoylbenzyl)-1H-pyrazol-1-yl)thiazole-4-carboxylic acid] | < 0.1 | 
